Reference: patent US6630161B1, “Adjuvant composition and methods for its use” (Ribi Immunochem Research, Inc., priority 1998, dated 2003)

Assay: Histamine type response after intravenous administration of surfactants
Format: in vivo
Settings: dogs

| Compound | response when administered intravenously |
| --- | --- |
| CCCCCCCC/C=C\CCCCCCCC(=O)OCCOCC(OCCO)C1OCC(OCCO)C1OCCO (centres unmarked) [Tween 80] | histamine type response |
| polysorbate 80 | histamine type response |
